Results: EP0173480A2, “The antiviral use of phyllanthostatins” (priority 1984, dated 1986)
Converted amounts (≈) assume the structure as drawn. Read-outs that look alike come from different tables or passages of the source.

Experiments:
[1] = test system: Herpes Simplex virus type 2 (HSV-2, strain 35D); assay: Genital HSV-2 infection of female mice, virus titers in vaginal secretions; assay type: in vivo; conditions: for Mean virus titer in swabs of mice which shed virus / Nv/Nt, swabs with virus/total swabs: 8.0 x 10^4 PFU;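 on Mean virus titer in swabs of mice which shed virus: titer expressed as log PFU per ml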
[2] = test system: HA-1; assay: Cell culture antiviral activity, agar-well zones of cytotoxicity / plaque inhibition; conditions: 50 pg of test compound (so in the source)
[3] = test system: Vero cells; assay: Cytotoxicity of drugs, absorbance at 260 nm of lysed cell monolayers
[4] = as above; conditions: monkey, vero cells, drug concentration which reduces the OD260 of lysed cells by 50%
[5] = test system: E.R.; conditions: 50 pg of test compound (so in the source)
[6] = test system: HSV-1; assay: Cell culture antiviral activity, agar-well zones of cytotoxicity / plaque inhibition; conditions: 50 pg of test compound (so in the source)
[7] = test system: HSV-2; assay: as above; conditions: 50 pg of test compound (so in the source)
[8] = test system: VSV (vesicular stomatitis virus); assay type: cell-based; conditions: Vero cells; higher drug concentrations (5 and 50 µg/ml) compared with 0.5
[9] = test system: Coe; assay: Cell culture antiviral activity, agar-well zones of cytotoxicity / plaque inhibition; conditions: 50 pg of test compound (so in the source)
[10] = test system: coxsackie A21; assay type: cell-based; conditions: ML cells
[11] = Drug toxicity in non-infected female mice treated intravaginally; assay type: in vivo; conditions: 1 mg/ml intravaginally 3 x daily x 5 days, compared with saline, zinc acetate groups, same gain by day 15
Description: Where indicated, non-infected mice (5 per group) were treated identically (3 times daily x 5) in order to determine drug toxicity. The groups of mice were weighed at the indicated times.
Non-infected female mice were treated intravaginally with the same drugs, at the same concentrations and with a schedule (3 x daily x 5 days). Animal weights were determined at the time of initiation of treatment (day 0), and again on day 4 (after 12 treatments were given), and again after treatments had been concluded on days 7, 11 and 15. The weights of the groups of mice treated with placebo or the high drug concentrations are shown on Table 3, and the differences in weights in Figure 4. […] Weight gains in mice treated with phyllanthoside (1 mg/ml) were slightly less than that of the above compounds, but by day 15, the mice had the same gain as those treated with phyllanthostatin I, saline or zinc acetate.

[12] = test system: herpes simplex virus type 1 (HSV-1, McIntyre); assay: Inhibition of virus replication, virus yield by plaque method; assay type: cell-based
[13] = test system: coxsackie B3 virus (Nancy Strain); assay: Inhibition of virus replication, virus yield in Vero cells; assay type: cell-based
[14] = test system: PR-8; conditions: 50 pg of test compound (so in the source)
[15] = test system: herpes simplex virus type 2 (HSV-2, MS); assay: Inhibition of virus replication, virus yield by plaque method; assay type: cell-based; conditions: for HSV-2 virus yield: Vero cells
[16] = test system: Vacc.; conditions: 50 pg of test compound (so in the source)
[17] = test system: Herpes Simplex virus type 2 (HSV-2, strain 35D); assay: Genital HSV-2 infection of female mice, intravaginal treatment, survival; assay type: in vivo; conditions: for mice survived (of 14): study of Table 3; for %S (percent survivors) / MDD (mean day of death): N 14
[18] = day 1 after HSV-2 inoc., 0.5 mg/ml
[19] = day 1 after HSV-2 inoc., 1 mg/ml
[20] = day 2 after HSV-2 inoc., 0.5 mg/ml
[21] = day 2 after HSV-2 inoc., 1 mg/ml
[22] = day 3 after HSV-2 inoc., 0.5 mg/ml
[23] = day 3 after HSV-2 inoc., 1 mg/ml
[24] = day 4 after HSV-2 inoc., 0.5 mg/ml
[25] = day 4 after HSV-2 inoc., 1 mg/ml
[26] = day 7 after HSV-2 inoc., 0.5 mg/ml
[27] = day 7 after HSV-2 inoc., 1 mg/ml
[28] = higher drug concentrations (5 and 50 µg/ml) compared with 0.5
[29] = therapeutic index with ID50 Vero 72 hrs.
[30] = therapeutic index with ID50 Vero 91 hrs.
[31] = 8.0 x 10^3 PFU/0.1 ml, mg/ml cell empty (1 mg/ml in upper section)
[32] = 8.0 x 10^4 PFU/0.1 ml, 1 mg/ml intravaginally

CC(=O)O[C@@H]1[C@@H](O)[C@H](O[C@H]2[C@H](OC(=O)[C@H]3CC[C@@H]4[C@H](C3)O[C@@]3(C[C@H](OC(=O)/C=C/c5ccccc5)[C@H](C)CO3)[C@]43CO3)O[C@H](C)[C@@H](O)[C@@H]2OC(C)=O)O[C@H](C)[C@H]1O [Phyllanthoside]
mean titer less than placebo treated groups ([1]; 0.5 mg/ml, after the first 3 days): about 0.6 logs | mean titer less than placebo treated groups ([1]; 0.5 mg/ml, first 3 days): about 1 log | mean titer less than saline or DMSO-saline treated groups ([1]; 1 mg/ml, day 4): about 0.6 logs | mean titer less than saline or DMSO-saline treated groups ([1]; 1 mg/ml, days 1, 2 and 3): about one | Mean virus titer in swabs of mice which shed virus [1, 18]: 2.46 log PFU/ml | Nv/Nt, swabs with virus/total swabs [1, 18]: 5/10 | Nv/Nt, swabs with virus/total swabs ([1]; day 1 after HSV-2 inoc., 0.5 mg/ml, listed as phyllanthoside): 5 | Mean virus titer in swabs of mice which shed virus [1, 19]: 2.83 log PFU/ml | Nv/Nt, swabs with virus/total swabs [1, 19]: 2/10 | Nv/Nt, swabs with virus/total swabs ([1]; day 1 after HSV-2 inoc., 1 mg/ml, listed as phyllanthoside): 2 | Mean virus titer in swabs of mice which shed virus [1, 20]: 3.45 log PFU/ml | Nv/Nt, swabs with virus/total swabs [1, 20]: 7/10 | Mean virus titer in swabs of mice which shed virus [1, 21]: 2.98 log PFU/ml | Nv/Nt, swabs with virus/total swabs [1, 21]: 3/10 | Nv/Nt, swabs with virus/total swabs ([1]; day 2 after HSV-2 inoc., 1 mg/ml, listed as phyllanthoside): 3 | Mean virus titer in swabs of mice which shed virus [1, 22]: 3.41 log PFU/ml | Nv/Nt, swabs with virus/total swabs [1, 22]: 8/10 | Mean virus titer in swabs of mice which shed virus [1, 23]: 3.11 log PFU/ml | Nv/Nt, swabs with virus/total swabs [1, 23]: 5/10 | Nv/Nt, swabs with virus/total swabs ([1]; day 3 after HSV-2 inoc., 1 mg/ml, listed as phyllanthoside): 5 | Mean virus titer in swabs of mice which shed virus [1, 24]: 3.73 log PFU/ml | Nv/Nt, swabs with virus/total swabs [1, 24]: 8/10 | Mean virus titer in swabs of mice which shed virus [1, 25]: 3.72 log PFU/ml | Nv/Nt, swabs with virus/total swabs [1, 25]: 4/10 | Nv/Nt, swabs with virus/total swabs ([1]; day 4 after HSV-2 inoc., 1 mg/ml, listed as phyllanthoside): 4 | Mean virus titer in swabs of mice which shed virus [1, 26]: 3.98 log PFU/ml | Nv/Nt, swabs with virus/total swabs [1, 26]: 2/4 | Mean virus titer in swabs of mice which shed virus [1, 27]: 2.94 log PFU/ml | Nv/Nt, swabs with virus/total swabs [1, 27]: 3/8 | zone of cytotoxicity ([2]; first figure of the cell): 4 | zone of antiviral activity (viral plaque inhibition) ([2]; second figure of the cell): 0 | OD260 of lysed cells ([3]; Vero cells, 0.5 µg per ml, greatly increased OD260 after 72 hours): decreased the OD260 during 72 hours | cell growth (OD260 of lysed cells) ([3]; Vero cells, 1 µg per ml, OD260 increased dramatically at 96 hours): cell growth was suppressed to a greater extent during the first 72 hours | ID50 Vero 91 hrs. ([3]; drug concentration which reduces the OD260 of lysed cells by 50%, table head 91 hrs., b38 96 hours, 5460 min): 3.568 ug per ml | CC50 at 72 h ([4]; ID50 Vero 72 hrs., 72 hours): 1200 µg/mL (≈ 1480 µM) | CC50 at 91 h ([4]; ID50 Vero 91 hrs., table head 91 hrs., b38 96 hours): 3.57 µg/mL (≈ 4.44 µM) | zone of cytotoxicity ([5]; first figure of the cell): 2 (2 - 20-30 mm) | zone of antiviral activity (viral plaque inhibition) ([5]; second figure of the cell): 4 | zone of cytotoxicity ([6]; first figure of the cell): 4/4 | zone of antiviral activity (viral plaque inhibition) ([6]; second figure of the cell): 4/4 | zone of cytotoxicity ([7]; first figure of the cell): 3 | zone of antiviral activity (viral plaque inhibition) ([7]; second figure of the cell): 4 | VSV virus yield [8]: further reductions in all virus yields | zone of cytotoxicity ([9]; first figure of the cell): 3 | zone of antiviral activity (viral plaque inhibition) ([9]; second figure of the cell): 0 | coxsackie A21 virus yield ([10]; 5 µg/ml (below 5 µg per ml)): inhibitory for both viruses | coxsackie A21 virus yield ([10]; below 5 µg per ml (i.e., 0.5 or 1), study of b36): reduced titers of coxsackie A21 | coxsackie A21 virus yield [10, 28]: further reductions in all virus yields | weight gains [11]: slightly less | HSV-1 virus yield ([12]; Vero cells, higher drug concentrations (5 and 50 µg/ml) compared with 0.5): further reductions in all virus yields | T - ID50/ED90, McIntyre [12, 29]: 0.6402 | T - ID50/ED90, McIntyre [12, 30]: 1.9115 | coxsackie B3 virus yield ([13]; 5 µg per ml): inhibitory for both viruses | coxsackie B3 virus yield ([13]; below 5 µg per ml (i.e., 0.5 or 1)): unaffected | zone of cytotoxicity ([14]; first figure of the cell): 3/3 | zone of antiviral activity (viral plaque inhibition) ([14]; second figure of the cell): 3/3 | ED90 MS ([15]; HSV-2 in Vero cells, drug concentration reducing virus titers by 90%, 1440 min): 1.4958 µg per ml | EC90 ([15]; Human alphaherpesvirus 2, Vero, 24 h, read-out: ED90 MS): 1.5 µg/mL (≈ 1.86 µM) | HSV-2 virus yield ([15]; 0.5 µg/ml): most susceptible virus to inhibition | HSV-2 virus yield [15, 28]: further reductions in all virus yields | T - ID50/ED90, MS [15, 29]: 0.7989 | T - ID50/ED90, MS [15, 30]: 2.3854 | zone of cytotoxicity ([16]; first figure of the cell): 4/4 | zone of antiviral activity (viral plaque inhibition) ([16]; second figure of the cell): 4/4 | mice survived (of 14) ([17]; 8.0 x 10^3 PFU in 0.1 ml): 13 | %S (percent survivors) [17, 31]: 93% | MDD (mean day of death) [17, 31]: 14.0 days | mice survived (of 14) ([17]; 8.0 x 10^4 PFU in 0.1 ml): 9 | %S (percent survivors) [17, 32]: 64% | MDD (mean day of death) [17, 32]: 9.0 days | protection of mice from lethal genital HSV-2 infection, summary in words ([17]; intravaginally from one hour after inoculation, 3 times daily): most effective of the compounds | mice survived ([17]; second study, 8.0 x 10^4 PFU in 0.1 ml, 0.5 mg/ml): 1 | mice protected from death (of 10) ([17]; second study, 8.0 x 10^4 PFU in 0.1 ml, 1 mg/ml): 7
